Source: patent publication US20150299277A1, “AGENT FOR TREATING OR PREVENTING SYSTEMIC INFLAMMATORY RESPONSE SYNDROME” (THE UNIVERSITY OF TOKYO, priority 2012, published 2015)
Entries after “also recorded” stand apart in the source; their conditions may differ.

Tested on: histone H4 on HUVEC
Test: Cytotoxic assay: suppression of histone cytotoxicity on HUVEC
Format: cell-based, human
Conditions: 1 hr culture, PI staining, FACS
Description: Normal human umbilical vein endothelial cells (HUVECs) were cultured in EGM2 medium (Clonetics). The cells after culture were washed with PBS, added with Opti-MEM medium containing an product of incubation of activated protein C (APC), PTX3, C reactive protein (CRP) or Serum amyloid P component (SAP) with histone for 1 hr, and the cells were further cultured for 1 hr. Propidium iodide (PI) was added to the medium after culture at a final concentration of 10 μg/mL, and the cells were stained for 10 min. The cells were washed with PBS, detached and analyzed by flow cytometry.
Using each recombinant histone instead of Calf Thymus Histones, a suppressive effect of full-length PTX3 or the N-terminal domain of PTX3 on histone cytotoxicity was studied in the same manner.
Lastly, capacity of suppressing the cytotoxic activity of histone was confirmed. Since this experiment requires a certain amount of protein and an endotoxin-elimination as treatment, a protein was expressed and purified at a 500 mL culture scale, and subjected to an endotoxin-elimination treatment (FIG. 18). In the case of PTX3 N-terminal domain, about 10 mg was obtained at a 500 mL culture scale, and a loss by the endotoxin-elimination treatment was scarcely observed. […] A capacity of fragment proteins obtained at a 500 mL scale on HUVEC to suppress histone cytotoxicity was studied. […]

N-terminal domain of PTX3: N-terminal domain human PTX3 (18-178 amino acids, SEQ ID NO: 3), tagged, expressed in CHO cells or Escherichia coli
suppression of toxic activity of histone H4 on HUVEC: suppress; also recorded: suppressed
